Assay results from publication PMC11331526 (2024).

Test system: d(G5C5)2 (G5C5) (DNA, duplex) GGGGGCCCCC
Experiment: emission titration, Bard fit
Conditions: 50 mM potassium phosphate, pH 7, 298 K, table title per base pair, fit per nucleotide

SMILES	Kb (site size 3.4, text prints 10^5)	Kb (site size 2.6, text error ±0.6)
[Ru+2].c1ccc2c(c1)ccc1nc3c4cccnc4c4ncccc4c3nc12.c1cnc2c(ccc3nccnc32)n1.c1cnc2c(ccc3nccnc32)n1	9.4(±1.2) × 10^6 M^-1	–
[Ru+2].c1ccc2cc3nc4c5cccnc5c5ncccc5c4nc3cc2c1.c1cnc2c(ccc3nccnc32)n1.c1cnc2c(ccc3nccnc32)n1	–	2.5(±0.4) × 10^6 M^-1
